Assay results taken from patent publication US20210227825A1, “SAFENER” (Nippon Soda Co., Ltd., priority 2018, published 2021).

System: rice seedling (variety: Koshihikari)
Assay: Rice hydroponics test tube test, number of new roots after 5 days (Example 5, Comparative Examples 1 and 2)
Assay type: in vivo
Conditions: for safener effect on inhibition of new root development by pyrazosulfuron-ethyl: 0.01 mg pyrazosulfuron-ethyl in 1 L hydroponics solution; for Condition of new roots in test tube of safener composition: 0.01 mg pyrazosulfuron-ethyl plus the safener (0.1 ml safener (A) or 0.01 mg comparative) in 1 L hydroponics solution
Procedure: One rice seedling (variety: Koshihikari) in the two-leaf stage was transplanted into the test tube. This was placed in an artificial meteorological instrument set to 16 hours (25° C.) in the light period and 8 hours (20° C.) in the dark period. After a lapse of 5 days, the number of new roots was counted. This test was performed a total of 6 times. An average value was calculated from the measured values for 6 times.
A comparative safener composition (1) was obtained by the same method as that for the safener composition (2), with the exception that 0.1 ml of the safener (A) of Example 5 was replaced with a solution obtained by dissolving 0.01 mg of α-naphthylacetamide in 10 μl of DMSO.
A comparative safener composition (2) was obtained by the same method as that for the safener composition (2), with the exception that 0.1 ml of the safener (A) of Example 5 was replaced with a solution obtained by dissolving 0.01 mg of indole butyric acid in 10 μl of DMSO.

Compound	safener effect on inhibition of new root development by pyrazosulfuron-ethyl	Condition of new roots in test tube of safener composition [roots]
NC(=O)Cc1cccc2ccccc12 [α-Naphthylacetamide, α-naphthylacetamide]	no safener effect	3.3
indole butyric acid	no safener effect	5.0
